In ChEMBL document CHEMBL1135858, “Vitamin D(3): synthesis of seco-C-9,11-bisnor-17-methyl-1 alpha,25-dihydroxyvitamin D(3) analogues” (2002):

Experiments:
[1] = target: T1, Vitamin D3 receptor (Sus scrofa) (UniProt A3RGC1); assay: (§1) Displacement of 50% binding of [3H]alpha,25 (OH)2D3 from pig intestinal mucosa Vitamin D3 receptor; assay type: tissue-based
T1 sequence (whole entry): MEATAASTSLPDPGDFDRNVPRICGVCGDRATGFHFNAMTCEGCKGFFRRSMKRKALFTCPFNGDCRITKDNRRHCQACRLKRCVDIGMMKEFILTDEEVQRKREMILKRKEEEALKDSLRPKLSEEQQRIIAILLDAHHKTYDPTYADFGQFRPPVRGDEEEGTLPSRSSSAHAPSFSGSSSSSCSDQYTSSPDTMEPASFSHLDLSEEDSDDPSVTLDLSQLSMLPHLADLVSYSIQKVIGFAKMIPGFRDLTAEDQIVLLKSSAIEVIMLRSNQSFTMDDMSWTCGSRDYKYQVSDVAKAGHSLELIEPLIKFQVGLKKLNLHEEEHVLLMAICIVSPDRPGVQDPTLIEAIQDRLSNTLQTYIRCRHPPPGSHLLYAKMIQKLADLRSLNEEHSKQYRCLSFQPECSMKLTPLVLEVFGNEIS

HL-60 = assay: Percent inhibition against HL-60 cell line (50% dose response), relative to 1-alpha,25 (OH)2D3 (100% activity) determined in vitro; assay type: functional, Homo sapiens; parameters: scale not given: the % may be the effect or the level left
Mus musculus = assay: Calcemic effect in vivo in vitamin D-replete normal NMRI mice by daily intraperitoneal injections of compound and 1-alpha,25 (OH)2D3 for 7 consecutive days; assay type: functional
MCF7 = assay: Percent inhibition against MCF-7 cell line (50% dose response), relative to 1-alpha,25 (OH)2D3 (100% activity) determined in vitro; assay type: functional, Homo sapiens; parameters: scale not given: the % may be the effect or the level left
Keratinocyte = assay: Percent inhibition against Keratinocytes cell line (50% dose response), relative to 1-alpha,25 (OH)2D3 (100% activity) determined in vitro; assay type: functional, Homo sapiens; parameters: scale not given: the % may be the effect or the level left
[2] = target: T1, Vitamin D3 receptor (Sus scrofa); assay: as §1

| SMILES | Relative affinity [1] | Relative affinity [2] | Activity (HL-60) [%] | Activity (Mus musculus) [%] | Activity (MCF7) [%] | Activity (Keratinocyte) [%] |
| --- | --- | --- | --- | --- | --- | --- |
| CC(CCCC(O)(C(F)(F)F)C(F)(F)F)C[C@H](C)[C@@]1(C)CC[C@@H](/C=C/C=C2C[C@@H](O)C[C@H](O)C2)C1(C)C (stereo not given in full) | 40 | – | 400 | 100 | 20000 | 16000 |
| CC(CC#CC(O)(C(F)(F)F)C(F)(F)F)C[C@@H](C)[C@@]1(C)CC[C@@H](/C=C/C=C2C[C@@H](O)C[C@H](O)C2)C1(C)C (stereo not given in full) | – | 50 | 300 | 3 | 1500 | 3000 |
| CC(CC#CC(C)(C)O)C[C@@H](C)[C@@]1(C)CC[C@@H](/C=C/C=C2C[C@@H](O)C[C@H](O)C2)C1(C)C (stereo not given in full) | – | 7 | 85 | 0.12 | 70 | 200 |
| C=C1/C(=C\C=C2/CCC[C@]3(C)[C@@H]([C@H](C)CCCC(C)(C)O)CC[C@@H]23)C[C@@H](O)C[C@@H]1O [CALCITRIOL] | 100 | – | 100 | 100 | 100 | 100 |
| CCC(O)(C#CCC(C)C[C@@H](C)[C@@]1(C)CC[C@@H](/C=C/C=C2C[C@@H](O)C[C@H](O)C2)C1(C)C)CC (stereo not given in full) | – | 50 | 50 | 0.25 | 85 | 85 |
| CC(CC#CC(O)(C(F)(F)F)C(F)(F)F)C[C@H](C)[C@@]1(C)CC[C@@H](/C=C/C=C2C[C@@H](O)C[C@H](O)C2)C1(C)C (stereo not given in full) | 50 | – | 400 | 25 | 6000 | 15000 |
| CC(CCCC(O)(C(F)(F)F)C(F)(F)F)C[C@@H](C)[C@@]1(C)CC[C@@H](/C=C/C=C2C[C@@H](O)C[C@H](O)C2)C1(C)C (stereo not given in full) | – | 9 | 100 | 50 | 600 | 1500 |
| C=C1C(=CC=C[C@@H]2CC[C@](C)([C@@H](C)CC(C)CC#CC(O)(C(F)(F)F)C(F)(F)F)C2(C)C)C[C@@H](O)C[C@@H]1O (stereo not given in full) | 75 | – | 1250 | 25 | 8000 | 15000 |
| CC(CC#CC(C)(C)O)C[C@H](C)[C@@]1(C)CC[C@@H](/C=C/C=C2C[C@@H](O)C[C@H](O)C2)C1(C)C (stereo not given in full) | 40 | – | 350 | 4 | 1300 | 2000 |
| C=C1C(=CC=C[C@@H]2CC[C@](C)([C@H](C)CC(C)CC#CC(O)(C(F)(F)F)C(F)(F)F)C2(C)C)C[C@@H](O)C[C@@H]1O (stereo not given in full) | – | 60 | 250 | 6 | 4500 | 3600 |
| CCC(O)(C#CCC(C)C[C@H](C)[C@@]1(C)CC[C@@H](/C=C/C=C2C[C@@H](O)C[C@H](O)C2)C1(C)C)CC (stereo not given in full) | 60 | – | 400 | 2 | 700 | 300 |

Second part, led by results:

| Relative affinity [1] | Relative affinity [2] | SMILES | Activity (HL-60) [%] | Activity (Mus musculus) [%] | Activity (MCF7) [%] | Activity (Keratinocyte) [%] |
| --- | --- | --- | --- | --- | --- | --- |
| – | 60 | C=C1C(=CC=C[C@@H]2CC[C@](C)([C@H](C)CC(C)CC#CC(C)(C)O)C2(C)C)C[C@@H](O)C[C@@H]1O (stereo not given in full) | 80 | 3 | 600 | 500 |
| 60 | – | C=C1C(=CC=C[C@@H]2CC[C@](C)([C@@H](C)CC(C)CCCC(O)(C(F)(F)F)C(F)(F)F)C2(C)C)C[C@@H](O)C[C@@H]1O (stereo not given in full) | 400 | >100 | 30000 | 20000 |
| 60 | – | CCC(O)(CC)CCCC(C)C[C@H](C)[C@@]1(C)CC[C@@H](/C=C/C=C2C[C@@H](O)C[C@H](O)C2)C1(C)C (stereo not given in full) | 500 | 20 | 7500 | 7000 |
| – | 30 | C=C1C(=CC=C[C@@H]2CC[C@](C)([C@H](C)CC(C)CCCC(O)(C(F)(F)F)C(F)(F)F)C2(C)C)C[C@@H](O)C[C@@H]1O (stereo not given in full) | 150 | 10 | 2500 | 2400 |
| – | 85 | C=C1C(=CC=C[C@@H]2CC[C@](C)([C@@H](C)CC(C)CCCC(C)(C)O)C2(C)C)C[C@@H](O)C[C@@H]1O (stereo not given in full) | 800 | 8 | 2000 | 1000 |
| – | 80 | C=C1C(=CC=C[C@@H]2CC[C@](C)([C@H](C)CC(C)CC#CC(O)(CC)CC)C2(C)C)C[C@@H](O)C[C@@H]1O (stereo not given in full) | 75 | 2 | 150 | 80 |
| – | 50 | C=C1C(=CC=C[C@@H]2CC[C@](C)([C@H](C)CC(C)CCCC(O)(CC)CC)C2(C)C)C[C@@H](O)C[C@@H]1O (stereo not given in full) | 150 | 2 | 300 | 400 |
| – | 6 | C=C1C(=CC=C[C@@H]2CC[C@](C)([C@H](C)CC(C)CCCC(C)(C)O)C2(C)C)C[C@@H](O)C[C@@H]1O (stereo not given in full) | 50 | 0.25 | 60 | 100 |
| 75 | – | C=C1C(=CC=C[C@@H]2CC[C@](C)([C@@H](C)CC(C)CC#CC(C)(C)O)C2(C)C)C[C@@H](O)C[C@@H]1O (stereo not given in full) | 800 | 3 | 1250 | 3250 |
| 80 | – | C=C1C(=CC=C[C@@H]2CC[C@](C)([C@@H](C)CC(C)CC#CC(O)(CC)CC)C2(C)C)C[C@@H](O)C[C@@H]1O (stereo not given in full) | 600 | 25 | 750 | 800 |
| – | 10 | CCC(O)(CC)CCCC(C)C[C@@H](C)[C@@]1(C)CC[C@@H](/C=C/C=C2C[C@@H](O)C[C@H](O)C2)C1(C)C (stereo not given in full) | 80 | 0.5 | 150 | 300 |
| 85 | – | C=C1C(=CC=C[C@@H]2CC[C@](C)([C@@H](C)CC(C)CCCC(O)(CC)CC)C2(C)C)C[C@@H](O)C[C@@H]1O (stereo not given in full) | 1250 | 100 | 15000 | 7000 |
| – | 3 | CC(CCCC(C)(C)O)C[C@@H](C)[C@@]1(C)CC[C@@H](/C=C/C=C2C[C@@H](O)C[C@H](O)C2)C1(C)C (stereo not given in full) | 10 | 0.12 | 8 | 80 |
| 40 | – | CC(CCCC(C)(C)O)C[C@H](C)[C@@]1(C)CC[C@@H](/C=C/C=C2C[C@@H](O)C[C@H](O)C2)C1(C)C (stereo not given in full) | 600 | 0.5 | 400 | 600 |
